Results published in patent US20220401573A1, “COMPOSITION AND METHOD FOR TREATMENT OF MULTIPLE SCLEROSIS” (Wuhan Vast Conduct Science Foundation CO., LTD., priority 2019, published 2022).

System: EAE mice
Test: Clinical scoring of MOG-induced EAE in mice
Format: in vivo, C57BL/6N female mice
Conditions: 10 mg/kg p.o., day 1 to day 28, positive control, FIG. 10
Method: C57BL/6N female mice, 7-9 weeks old, were used. Animals were housed and maintained in compliance with the regulations.
On Day 0, mice were grouped randomly by body weight, and then injected subcutaneously with 200 μg of myelin oligodendrocyte glycoprotein (MOG) peptide in complete Freund's adjuvant (CFA) into the right and left flank, 100 μl per site. Pertussis toxin (PTX) injected by i.p at 0 and 48 hours after MOG immunization. Compounds were given from day 1 to day 28 according to Table 2. The animals (n=10) were scored daily for clinical signs of EAE. At the end of the experiments, spinal cords were used for HE staining (n=5), and analysis of TNF-α, IL-17, IFN-γ by Elisa kit.
The animals were scored daily for clinical signs of EAE according to the Clinical scoring rubric for EAE (Table 3).

## C[C@]12C=CC(=O)C=C1CC[C@@H]1[C@@H]2C(=O)C[C@@]2(C)[C@H]1CC[C@]2(O)C(=O)CO [prednisone, Prednisone]
  clinical signs of EAE (clinical score): significantly reduced clinical signs of EAE from day 13th
